Laboratory results as given in patent US8143282B2, “Heterocyclic compounds” (S*BIO Pte Ltd., priority 2005, dated 2012).

Columns and labels:
A2780 = experiment: Cell-based proliferation assay for GI50 (CyQUANT), A2780; details: Homo sapiens; A2780, 96 h treatment; read-out: Cellular or Growth Inhibition Activity, GI50, A2780
Method: (§1) Human colon cancer cell lines (Colo205, HCT116), Ovarian cancer cell line (A2780), Hepatoma cell line (HEP3B), Prostate cancer cell line (PC3) were obtained from ATCC or ECACC. Colo205 cells were cultivated in RPMI 1640 containing 2 mM L-Glutamine, 5% FBS, 1.0 mM Na Pyruvate, 1 U/ml of penicillin and 1 μg of streptomycin. HCT116 cells were cultivated in McCoy's containing RPMI 1640 containing 2 mM L-Glutamine, 5% FBS, 1 U/ml of penicillin and 1 μg of streptomycin. A2780 cells were cultivated in RPMI 1640 containing 2 mM L-Glutamine, 5% FBS, 1 U/ml of penicillin and 1 μg of streptomycin. HEP3B cells were cultivated in EMEM containing 2 mM L-glutamine, 5% FBS, 1% non essential amino acid, 1 mM Na Pyruvate, 1 U/ml of penicillin and 1 μg of streptomycin. PC3 cells were cultivated in F12K, 2 mM L-glutamine, 5% FBS, 1 U/ml of penicillin and 1 μg of streptomycin. PC3, Colo205, and HCT116 cells were seeded in 96-wells plate at 1000, 5000 and 6000 cells per well respectively. A2780 and HEP3B cells were seeded in 96-wells plate at 4000 cells per well respectively. The plates were incubated at 37° C., 5% CO2, for 24 h. Cells were treated with compounds at various concentrations for 96 h. Cell growth was then monitored using CyQUANT® cell proliferation assay (Invitrogen Pte Ltd). Dose response curves were plotted to determine GI50 values for the compounds using XL-fit (ID Business Solution, Emeryville, Calif.). GI50 is defined as the concentration of compound required for 50% inhibition of cell growth.

acetylated histone H3 = experiment: Histone H3 acetylation assay (immuno-blotting) in Colo205 cells; assay type: cell-based, Human; details: 10 μM, 24 h, western-blot
Method: A hallmark of histone deacetylase (HDAC) inhibition is the increase in the acetylation level of histones. Histone acetylation, including H3, H4 and H2A can be detected by immuno-blotting (western-blot). Colo205 cells, approximately 5×10^5 cells, were seeded in the previously described medium, cultivated for 24 h and subsequently treated with HDAC inhibitory agents and a positive control at a final concentration of 10 μM. After 24 h, cells were harvested and lysed according to the instruction from Sigma Mammalian Cell Lysis Kit. The protein concentration was quantified using BCA method (Sigma Pte Ltd). The protein lysate was separated using 4-12% bis-tris SDS-PAGE gel (Invitrogen Pte Ltd) and was transferred onto PVDF membrane (BioRad Pte Ltd). The membrane was probed using primary antibody specific for acetylated histone H3 (Upstate Pte Ltd). The detection antibody, goat anti rabbit antibody conjugated with HRP was used according to the manufacturing instruction (Pierce Pte Ltd). After removing the detection antibody from the membrane, an enhanced chemiluminescent substrate for detection of HRP (Pierce Pte Ltd) was added onto the membrane. After removing the substrate, the membrane was exposed to an X-ray film (Kodak) for 1 sec-20 mins. The X-ray film was developed using the X-ray film processor. The density of each band observed on the developed film could be qualitatively analyzed using UVP Bioimaging software (UVP, Inc, Upland, Calif.). The values were then normalized against the density of actin in the corresponding samples to obtain the expression of the protein.

[1] = Measurement of microsomal stability; assay type: in vitro ADME; details: pooled human liver microsomes, pH 7.4; human liver microsome, 5 μM test compound, 1.0 mg/ml microsomal protein
PC3 = experiment: Cell-based proliferation assay for GI50 (CyQUANT), PC3; details: Homo sapiens, PC-3; PC3, 96 h treatment; read-out: Cellular or Growth Inhibition Activity, GI50, PC3
Method: as §1

Colo205 cells = experiment: Cell-based proliferation assay for GI50 (CyQUANT), Colo205; details: Homo sapiens, COLO 205, 96 h treatment, read-out: Cellular or Growth Inhibition Activity in Colo205 cells, GI50
Method in brief: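 Cells were seeded at 1000 (PC3), 5000 (Colo205), 6000 (HCT116) or 4000 (HEP3B) per well and left 24 h at 37° C. Compound treatment lasted 96 h. Growth was read by CyQUANT, and GI50 (50% growth inhibition) came from dose-response curves.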

GI50 (A2780): < 500 nM
half-life at 5 μM [1]: > 30 min
GI50 (PC3): < 500 nM
GI50 (Colo205 cells): 150 nM
Structure (SMILES): CCCc1nc2cc(/C=C/C(=O)NO)ccc2n1CCNCCC(C)(C)C [Compound 130, 3-{1-[2-(3,3-Dimethyl-butylamino)-ethyl]-2-propyl-1H-benzoimidazol-5-yl}-N-hydroxy-acrylamide]
Histone Acetylation activities (Histone-3) (acetylated histone H3): Active
